According to US11957759B1, “Rapidly accelerated fibrosarcoma (RAF) degrading compounds and associated methods of use” (Arvinas Operations, Inc., priority 2022, dated 2024):

Tests used:
B-RAF V600E = molecular target: T1, B-RAF V600E (Homo sapiens, UniProt P15056, V600E); assay: Target protein degradation, assay C: T-Rex 293 cells, HA-BRAF_V600E, 384 well format; format: cell-based; conditions: T-Rex 293 HA-BRAF_V600E cells, 24 hours, Examples 83-269; for DC50: Assay C; for Dmax: T-REx-293, Assay C
T1 construct: expressed in transfected cells; host or cells: T-Rex 293 cells (Invitrogen #R71007)
T1 sequence (P15056 whole entry V600E): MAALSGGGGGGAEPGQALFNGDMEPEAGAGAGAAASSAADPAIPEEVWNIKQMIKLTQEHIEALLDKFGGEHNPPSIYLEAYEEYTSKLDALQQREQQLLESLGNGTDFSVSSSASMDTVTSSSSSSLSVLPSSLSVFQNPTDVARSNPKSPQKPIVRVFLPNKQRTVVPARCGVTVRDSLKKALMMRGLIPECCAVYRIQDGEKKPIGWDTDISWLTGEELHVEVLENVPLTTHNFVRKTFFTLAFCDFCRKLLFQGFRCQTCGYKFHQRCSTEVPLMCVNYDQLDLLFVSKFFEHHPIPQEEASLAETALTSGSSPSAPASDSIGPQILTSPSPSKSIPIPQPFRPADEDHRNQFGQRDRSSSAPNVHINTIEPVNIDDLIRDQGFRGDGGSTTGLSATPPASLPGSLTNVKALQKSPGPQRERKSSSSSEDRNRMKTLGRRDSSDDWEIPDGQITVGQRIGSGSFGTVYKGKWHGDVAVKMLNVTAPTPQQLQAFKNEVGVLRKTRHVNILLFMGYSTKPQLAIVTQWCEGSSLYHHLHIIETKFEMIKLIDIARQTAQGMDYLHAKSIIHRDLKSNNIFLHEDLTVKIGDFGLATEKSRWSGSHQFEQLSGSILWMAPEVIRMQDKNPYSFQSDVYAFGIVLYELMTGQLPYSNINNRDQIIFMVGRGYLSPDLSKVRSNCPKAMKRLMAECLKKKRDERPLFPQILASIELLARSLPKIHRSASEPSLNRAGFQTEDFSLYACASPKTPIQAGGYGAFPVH
How it was run: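 After 24 h exposure to an 11-point 1:3 series (300 nM–5 pM, 0.5% DMSO), fixed T-Rex 293 cells carrying HA-BRAF V600E (induced with 1 ng/mL doxycycline) were stained anti-HA and imaged. DC50 and Dmax were derived from BRAF intensity relative to control, and cytotoxicity from nuclear counts.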

B-RAF G466V = molecular target: T2, B-RAF G466V (Homo sapiens, UniProt P15056, G466V); assay: Target protein degradation, assay D: T-Rex 293 cells, HA-BRAF_G466V, 384 well format; format: cell-based; conditions: T-Rex 293 HA-BRAF_G466V cells, 24 hours, Examples 83-269; for DC50: Assay D; for Dmax: T-REx-293, Assay D
T2 construct: expressed in transfected cells; host or cells: T-Rex 293 cells (Invitrogen #R71007)
T2 sequence (P15056 whole entry G466V): as the sequence (P15056 whole entry V600E) above, with G466V, E600V counted along it
How it was run: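 Degradation measured by high-content imaging of anti-HA immunofluorescence in fixed T-Rex 293 cells carrying inducible HA-BRAF G466V (1 ng/mL doxycycline), after 24 h PROTAC exposure at 37 °C over 300 nM–5 pM (1:3, 11 points, 0.5% DMSO). Outputs DC50 and Dmax as % of control; nuclei counts against DMSO wells gauge toxicity.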

SMILES	DC50 (B-RAF V600E)	Dmax (B-RAF V600E)	DC50 (B-RAF G466V)	Dmax (B-RAF G466V)
CN(c1ccc(-n2cnc3ccc(Oc4c(F)ccc(NS(=O)(=O)N5CC[C@@H](F)C5)c4C#N)cc3c2=O)cc1)[C@H]1CC[C@@H](N2CCN(c3ccc4c(c3)CN([C@H]3CCC(=O)NC3=O)C4=O)CC2)CC1 [Example 224, (3R)-N-(2-cyano-4-fluoro-3-{[3-(4-{methyl[(1r,4r)-4-(4-{2-[(3S)-2,6-dioxopiperidin-3-yl]-1-oxo-2,3-dihydro-1H-isoindol-5-yl}piperazin-1-yl)cyclohexyl]amino}phenyl)-4-oxo-3,4-dihydroquinazolin-6-yl]oxy}phenyl)-3-fluoropyrrolidine-1-sulfonamide]	50 to 500 nM	≤ 35%	10 to 30 nM	35 to 70%
N#Cc1c(NS(=O)(=O)N2CC[C@@H](F)C2)ccc(F)c1Oc1ccc2ncn(-c3ccc(N4CCN(c5ccc(C(=O)NC6CCC(=O)NC6=O)c(F)c5)CC4)nc3)c(=O)c2c1 (stereo partly drawn) [Example 162, 4-[4-(5-{6-[2-cyano-6-fluoro-3-({[(3R)-3-fluoropyrrolidin-1-yl]sulfonyl}amino)phenoxy]-4-oxo-3,4-dihydroquinazolin-3-yl}pyridin-2-yl)piperazin-1-yl]-N-(2,6-dioxopiperidin-3-yl)-2-fluorobenzamide]	5 to 50 nM	35 to 70%	≤ 1 nM	≤ 35%
N#Cc1c(NS(=O)(=O)N2CC[C@@H](F)C2)ccc(F)c1Oc1ccc2ncn(-c3cnc(N4CCC(CN5CC6(C5)CN(c5ccc7c(c5)C(=O)N(C5CCC(=O)NC5=O)C7=O)C6)CC4)nc3)c(=O)c2c1 (stereo partly drawn) [Example 133, (3R)-N-{2-cyano-3-[(3-{2-[4-({6-[2-(2,6-dioxopiperidin-3-yl)-1,3-dioxo-2,3-dihydro-1H-isoindol-5-yl]-2,6-diazaspiro[3.3]heptan-2-yl}methyl)piperidin-1-yl]pyrimidin-5-yl}-4-oxo-3,4-dihydroquinazolin-6-yl)oxy]-4-fluorophenyl}-3-fluoropyrrolidine-1-sulfonamide]	50 to 500 nM	35 to 70%	1 to 10 nM	35 to 70%
N#Cc1c(NS(=O)(=O)N2CC[C@@H](F)C2)ccc(F)c1Oc1ccc2ncn(-c3ccc(N4CCC5(CCN(CC6CCN(c7ccc8c(c7)CN([C@H]7CCC(=O)NC7=O)C8=O)CC6)CC5)CC4)cc3)c(=O)c2c1 [Example 200, (3R)-N-(2-cyano-3-{[3-(4-{9-[(1-{2-[(3S)-2,6-dioxopiperidin-3-yl]-1-oxo-2,3-dihydro-1H-isoindol-5-yl}piperidin-4-yl)methyl]-3,9-diazaspiro[5.5]undecan-3-yl}phenyl)-4-oxo-3,4-dihydroquinazolin-6-yl]oxy}-4-fluorophenyl)-3-fluoropyrrolidine-1-sulfonamide]	50 to 500 nM	35 to 70%	1 to 10 nM	35 to 70%
N#Cc1c(NS(=O)(=O)N2CC[C@@H](F)C2)ccc(F)c1Oc1ccc2ncn(-c3cccc(N4CCN(CC5CN(c6ccc7c(c6)CN([C@H]6CCC(=O)NC6=O)C7=O)C5)CC4)c3)c(=O)c2c1 [Example 254, (3R)-N-(2-cyano-3-{[3-(3-{4-[(1-{2-[(3S)-2,6-dioxopiperidin-3-yl]-1-oxo-2,3-dihydro-1H-isoindol-5-yl}azetidin-3-yl)methyl]piperazin-1-yl}phenyl)-4-oxo-3,4-dihydroquinazolin-6-yl]oxy}-4-fluorophenyl)-3-fluoropyrrolidine-1-sulfonamide]	50 to 500 nM	35 to 70%	1 to 10 nM	≥ 70%
N#Cc1c(NS(=O)(=O)N2CC[C@@H](F)C2)ccc(F)c1Oc1ccc2ncn(-c3ccc(N4CCC(CN5CCC(Oc6cccc7c6C(=O)N(C6CCC(=O)NC6=O)C7=O)CC5)CC4)nc3)c(=O)c2c1 (stereo partly drawn) [Example 137, (3R)-N-(2-cyano-3-{[3-(6-{4-[(4-{[2-(2,6-dioxopiperidin-3-yl)-1,3-dioxo-2,3-dihydro-1H-isoindol-4-yl]oxy}piperidin-1-yl)methyl]piperidin-1-yl}pyridin-3-yl)-4-oxo-3,4-dihydroquinazolin-6-yl]oxy}-4-fluorophenyl)-3-fluoropyrrolidine-1-sulfonamide]	> 500 nM		> 30 nM	≤ 35%
N#Cc1c(NS(=O)(=O)N2CC[C@@H](F)C2)ccc(F)c1Oc1ccc2ncn(-c3cccc(C4CCN(CC5CCN(c6ccc7c(c6)CN([C@H]6CCC(=O)NC6=O)C7=O)CC5)C4)c3)c(=O)c2c1 (stereo partly drawn) [Example 211, (3R)-N-(2-cyano-3-{[3-(3-{1-[(1-{2-[(3S)-2,6-dioxopiperidin-3-yl]-1-oxo-2,3-dihydro-1H-isoindol-5-yl}piperidin-4-yl)methyl]pyrrolidin-3-yl}phenyl)-4-oxo-3,4-dihydroquinazolin-6-yl]oxy}-4-fluorophenyl)-3-fluoropyrrolidine-1-sulfonamide]	50 to 500 nM	35 to 70%	1 to 10 nM	35 to 70%
CCN(C)S(=O)(=O)Nc1ccc(F)c(Oc2ccc3ncn(-c4ccc(N5CCN(CC6CCN(c7ccc(C8CCC(=O)NC8=O)cc7F)CC6)CC5)cc4)c(=O)c3c2)c1C#N (centres unmarked) [Example 110, 2-[(3-{4-[4-({1-[4-(2,6-dioxopiperidin-3-yl)-2-fluorophenyl]piperidin-4-yl}methyl)piperazin-1-yl]phenyl}-4-oxo-3,4-dihydroquinazolin-6-yl)oxy]-6-{[ethyl(methyl)sulfamoyl]amino}-3-fluorobenzonitrile]	50 to 500 nM	35 to 70%	> 30 nM	
N#Cc1c(NS(=O)(=O)N2CC[C@@H](F)C2)ccc(F)c1Oc1ccc2ncn(-c3ccc(C4CCN(CC5CN(c6ccc7c(c6Cl)CN([C@H]6CCC(=O)NC6=O)C7=O)C5)CC4)cc3)c(=O)c2c1 [Example 258, (3R)-N-(3-{[3-(4-{1-[(1-{4-chloro-2-[(3S)-2,6-dioxopiperidin-3-yl]-1-oxo-2,3-dihydro-1H-isoindol-5-yl}azetidin-3-yl)methyl]piperidin-4-yl}phenyl)-4-oxo-3,4-dihydroquinazolin-6-yl]oxy}-2-cyano-4-fluorophenyl)-3-fluoropyrrolidine-1-sulfonamide]	50 to 500 nM	35 to 70%	1 to 10 nM	35 to 70%
CN(c1ccc2c(c1)CN([C@@H]1CCC(=O)NC1=O)C2=O)[C@H]1CC[C@H](N2CCN(c3ccc(-n4cnc5ccc(Oc6c(F)ccc(NS(=O)(=O)N7CC[C@@H](F)C7)c6C#N)cc5c4=O)cc3)CC2)CC1 [Example 229, (3R)-N-(2-cyano-4-fluoro-3-{[4-oxo-3-(4-{4-[(1r,4r)-4-({2-[(3R)-2,6-dioxopiperidin-3-yl]-1-oxo-2,3-dihydro-1H-isoindol-5-yl}(methyl)amino)cyclohexyl]piperazin-1-yl}phenyl)-3,4-dihydroquinazolin-6-yl]oxy}phenyl)-3-fluoropyrrolidine-1-sulfonamide]	50 to 500 nM	35 to 70%	1 to 10 nM	35 to 70%
N#Cc1c(NS(=O)(=O)N2CC[C@@H](F)C2)ccc(F)c1Oc1ccc2ncn(-c3cnc(N4CCN(CC5CCN(c6ccc7c(c6)CN(C6CCC(=O)NC6=O)C7=O)CC5)CC4)cn3)c(=O)c2c1 (stereo partly drawn) [Example 89, (3R)-N-{2-cyano-3-[(3-(5-[4-({1-[2-(2,6-dioxopiperidin-3-yl)-1-oxo-2,3-dihydro-1H-isoindol-5-yl]piperidin-4-yl}methyl)piperazin-1-yl]pyrazin-2-yl}-4-oxo-3,4-dihydroquinazolin-6-yl)oxy]-4-fluorophenyl}-3-fluoropyrrolidine-1-sulfonamide]	5 to 50 nM	35 to 70%	1 to 10 nM	≤ 35%
N#Cc1c(NS(=O)(=O)N2CC[C@@H](F)C2)ccc(F)c1Oc1ccc2ncn(-c3ccc(N4CCN(CC5CCN(c6cc7c(c(OC(F)(F)F)c6)C(=O)N(C6CCC(=O)NC6=O)C7)CC5)CC4)cc3)c(=O)c2c1 (stereo partly drawn) [Example 265, (3R)-N-{2-cyano-3-[(3-{4-[4-({1-[2-(2,6-dioxopiperidin-3-yl)-1-oxo-7-(trifluoromethoxy)-2,3-dihydro-1H-isoindol-5-yl]piperidin-4-yl}methyl)piperazin-1-yl]phenyl}-4-oxo-3,4-dihydroquinazolin-6-yl)oxy]-4-fluorophenyl}-3-fluoropyrrolidine-1-sulfonamide]	50 to 500 nM	35 to 70%	10 to 30 nM	35 to 70%
N#Cc1c(NS(=O)(=O)N2CC[C@@H](F)C2)ccc(F)c1Oc1ccc2ncn(-c3ccc(N4CCN(CC5CCN(c6ccc(N7CCC(=O)NC7=O)cc6)CC5)CC4)cc3)c(=O)c2c1 [Example 96, (3R)-N-{2-cyano-3-[(3-(4-[4-({1-[4-(2,4-dioxo-1,3-diazinan-1-yl)phenyl]piperidin-4-yl}methyl)piperazin-1-yl]phenyl}-4-oxo-3,4-dihydroquinazolin-6-yl)oxy]-4-fluorophenyl}-3-fluoropyrrolidine-1-sulfonamide]	5 to 50 nM	35 to 70%	1 to 10 nM	≤ 35%
